From patent US9309262B2 (ABT Holding Company, priority 2013, dated 2016) come the findings set out here.

Where only a bound is given, the exact number is not on record here.

The test has as its target T1, human 5HT2c receptor (VSV isoform) (Homo sapiens, UniProt P28335, I156V/I160V/N158S).
T1 construct: expressed in transfected cells; host or cells: HEK 293 EBNA, stably transfected
T1 sequence (P28335 33-458 I156V/N158S/I160V): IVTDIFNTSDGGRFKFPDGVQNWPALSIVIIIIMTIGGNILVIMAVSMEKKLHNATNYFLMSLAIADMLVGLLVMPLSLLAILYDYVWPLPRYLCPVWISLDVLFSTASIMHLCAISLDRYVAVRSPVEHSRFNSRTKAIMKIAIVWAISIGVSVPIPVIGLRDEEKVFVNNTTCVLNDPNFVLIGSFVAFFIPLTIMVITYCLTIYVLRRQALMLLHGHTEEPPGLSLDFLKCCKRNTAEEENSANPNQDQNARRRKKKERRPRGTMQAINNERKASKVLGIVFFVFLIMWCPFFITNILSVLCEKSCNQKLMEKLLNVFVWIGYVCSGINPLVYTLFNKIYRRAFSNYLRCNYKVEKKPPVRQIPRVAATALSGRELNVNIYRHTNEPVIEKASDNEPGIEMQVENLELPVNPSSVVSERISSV
Put plainly: cell-based.

Regarding `CCn1ccc2sc3c(c21)CCNCC3` [Example 1, 3,4,5,6,7,8-Hexahydro-9-thia-3,6-diaza-cyclopenta[a]alazulene], the EC50 was less than 10 nM. To `c1ccc(Cn2ccc3sc4c(c32)CCNCC4)cc1` [Example 4, 3-Benzyl-3,4,5,6,7,8-hexahydro-9-thia-3,6-diaza-cyclopenta[a]azulene] belongs less than 10 nM; to `Clc1ccc(-n2ccc3sc4c(c32)CCNCC4)cc1` [Example 5, 3-(4-Chloro-phenyl)-3,4,5,6,7,8-hexahydro-9-thia-3,6-diaza-cyclopenta[a]azulene], less than 1000 nM.

`Cc1ccccc1Cn1ccc2sc3c(c21)CCNCC3` [Example 6, 3-(2-Methyl-benzyl)-3,4,5,6,7,8-hexahydro-9-thia-3,6-diaza-cyclopenta[a]azulene] displayed a 50% effective concentration (EC50) of less than 10 nM. To `Cc1cccc(Cn2ccc3sc4c(c32)CCNCC4)c1` [Example 7, 3-(3-Methyl-benzyl)-3,4,5,6,7,8-hexahydro-9-thia-3,6-diaza-cyclopenta[a]azulene] belongs less than 10 nM; to `Cc1ccc(Cn2ccc3sc4c(c32)CCNCC4)cc1` [Example 8, 3-(4-Methyl-benzyl)-3,4,5,6,7,8-hexahydro-9-thia-3,6-diaza-cyclopenta[a]azulene], less than 10 nM.

`Clc1cccc(Cn2ccc3sc4c(c32)CCNCC4)c1` [Example 10]: the EC50 is less than 10 nM. Next, `Clc1ccc(Cn2ccc3sc4c(c32)CCNCC4)cc1` [Example 11]: less than 10 nM; `Cc1ccc(-n2ccc3sc4c(c32)CCNCC4)cc1` [Example 13, 3-p-Tolyl-3,4,5,6,7,8-hexahydro-9-thia-3,6-diaza-cyclopenta[a]azulene]: less than 100 nM; `COc1ccc(-n2ccc3sc4c(c32)CCNCC4)cc1` [Example 14, 3-(4-Methoxy-phenyl)-3,4,5,6,7,8-hexahydro-9-thia-3,6-diaza-cyclopenta[a]azulene]: less than 100 nM.

Regarding `Cc1cccc(-n2ccc3sc4c(c32)CCNCC4)c1` [Example 15, 3-m-Tolyl-3,4,5,6,7,8-hexahydro-9-thia-3,6-diaza-cyclopenta[a]azulene], the EC50 was less than 100 nM. To `COc1cccc(-n2ccc3sc4c(c32)CCNCC4)c1` [Example 16, 3-(3-Methoxy-phenyl)-3,4,5,6,7,8-hexahydro-9-thia-3,6-diaza-cyclopenta[a]azulene] belongs less than 1000 nM. To `Clc1cccc(-n2ccc3sc4c(c32)CCNCC4)c1` [Example 17, 3-(3-Chloro-phenyl)-3,4,5,6,7,8-hexahydro-9-thia-3,6-diaza-cyclopenta[a]azulene] belongs less than 100 nM; to `COc1cccc(Cn2ccc3sc4c(c32)CCNCC4)c1` [Example 18, 3-(3-Methoxy-benzyl)-3,4,5,6,7,8-hexahydro-9-thia-3,6-diaza-cyclopenta[a]azulene], less than 10 nM; to `COc1ccc(Cn2ccc3sc4c(c32)CCNCC4)cc1` [Example 19, 3-(4-Methoxy-benzyl)-3,4,5,6,7,8-hexahydro-9-thia-3,6-diaza-cyclopenta[a]azulene], less than 100 nM. To `c1cn(CC2CCCCC2)c2c3c(sc12)CCNCC3` [Example 20, 3-Cyclohexylmethyl-3,4,5,6,7,8-hexahydro-9-thia-3,6-diaza-cyclopenta[a]azulene] belongs less than 100 nM; to `c1ccc2c(Cn3ccc4sc5c(c43)CCNCC5)cccc2c1` [Example 21, 3-Naphthalen-1-ylmethyl-3,4,5,6,7,8-hexahydro-9-thia-3,6-diaza-cyclopenta[a]azulene], less than 10 nM; to `Clc1cccc(Cn2ccc3sc4c(c32)CCNCC4)c1Cl` [Example 22, 3-(2,3-Dichloro-benzyl)-3,4,5,6,7,8-hexahydro-9-thia-3,6-diaza-cyclopenta[a]azulene], less than 10 nM.

`Clc1ccc(Cn2ccc3sc4c(c32)CCNCC4)cc1Cl` [Example 23, 3-(3,4-Dichloro-benzyl)-3,4,5,6,7,8-hexahydro-9-thia-3,6-diaza-cyclopenta[a]azulene] had an EC50 of less than 10 nM. With `c1cnc2c(Cn3ccc4sc5c(c43)CCNCC5)cccc2c1` [Example 24, 3-Quinolin-8-ylmethyl-3,4,5,6,7,8-hexahydro-9-thia-3,6-diaza-cyclopenta[a]azulene], the EC50 is less than 100 nM.

Take `c1cc(Cn2ccc3sc4c(c32)CCNCC4)c2ccncc2c1` [Example 25, 3-Isoquinolin-5-ylmethyl-3,4,5,6,7,8-hexahydro-9-thia-3,6-diaza-cyclopenta[a]azulene]: the EC50 was less than 10 nM.

`c1ccc2c(Cn3ccc4sc5c(c43)CCNCC5)nccc2c1` [Example 26, 3-Isoquinolin-1-ylmethyl-3,4,5,6,7,8-hexahydro-9-thia-3,6-diaza-cyclopenta[a]azulene] returned an EC50 of less than 10 nM.
